Experimental data taken from ChEMBL document CHEMBL4800724 (2021).
Each block holds one molecule with its values, some of them ahead of it. The source made the active and inactive calls. The rule behind the calls is not given here.

Legend:
[1] = molecular target: Muscarinic acetylcholine receptor M1 (Homo sapiens) (UniProt P11229); settings: Compound concentration 10.0 uM
[2] = molecular target: T1, Sodium-dependent dopamine transporter (Homo sapiens, UniProt Q01959); settings: Compound concentration 10.0 uM
[3] = molecular target: D(1B) dopamine receptor (Homo sapiens) (UniProt P21918); settings: Compound concentration 10.0 uM
[4] = molecular target: Muscarinic acetylcholine receptor M4 (Homo sapiens) (UniProt P08173); settings: Compound concentration 10.0 uM
[5] = molecular target: 5-hydroxytryptamine receptor 1D (Homo sapiens) (UniProt P28221); settings: Compound concentration 10.0 uM
[6] = molecular target: Alpha-2C adrenergic receptor (Homo sapiens) (UniProt P18825); settings: Compound concentration 10.0 uM
[7] = molecular target: Mitogen-activated protein kinase 14 (Homo sapiens, UniProt Q16539); experiment: NanoBRET (SGC Frankfurt) (MAPK14)
[8] = molecular target: Beta-1 adrenergic receptor (Homo sapiens) (UniProt P08588); settings: Compound concentration 10.0 uM
[9] = molecular target: 5-hydroxytryptamine receptor 3A (Homo sapiens) (UniProt P46098); settings: Compound concentration 10.0 uM
Rattus norvegicus = species: Rattus norvegicus; settings: Compound concentration 10.0 uM
[10] = molecular target: Delta-type opioid receptor (Homo sapiens) (UniProt P41143); settings: Compound concentration 10.0 uM
[11] = molecular target: Histamine H3 receptor (Homo sapiens) (UniProt Q9Y5N1); settings: Compound concentration 10.0 uM
[12] = molecular target: 5-hydroxytryptamine receptor 6 (Homo sapiens) (UniProt P50406); settings: Compound concentration 10.0 uM
[13] = molecular target: Kappa-type opioid receptor (Homo sapiens) (UniProt P41145); settings: Compound concentration 10.0 uM
[14] = molecular target: Alpha-1A adrenergic receptor (Homo sapiens) (UniProt P35348); settings: Compound concentration 10.0 uM
[15] = molecular target: T2, Sigma non-opioid intracellular receptor 1 (Homo sapiens, UniProt Q99720); settings: Compound concentration 10.0 uM
[16] = molecular target: D(3) dopamine receptor (Homo sapiens) (UniProt P35462); settings: Compound concentration 10.0 uM
[17] = molecular target: Sodium-dependent noradrenaline transporter (Homo sapiens) (UniProt P23975); settings: Compound concentration 10.0 uM
[18] = molecular target: T3, GABA-A receptor; anion channel (Rattus norvegicus) (UniProt O09028+P15431+P18506+P18508+P19969+P20236+P23574+P23576+P28471+P28473+P30191+P62813+P63079+P63138+Q91ZM7+Q9ES14); settings: Compound concentration 10.0 uM
[19] = molecular target: 5-hydroxytryptamine receptor 7 (Homo sapiens) (UniProt P34969); settings: Compound concentration 10.0 uM
[20] = molecular target: 5-hydroxytryptamine receptor 2C (Homo sapiens) (UniProt P28335); settings: Compound concentration 10.0 uM
[21] = molecular target: Histamine H4 receptor (Homo sapiens) (UniProt Q9H3N8); settings: Compound concentration 10.0 uM
[22] = molecular target: 5-hydroxytryptamine receptor 1B (Homo sapiens) (UniProt P28222); settings: Compound concentration 10.0 uM
[23] = molecular target: Muscarinic acetylcholine receptor M3 (Homo sapiens) (UniProt P20309); settings: Compound concentration 10.0 uM
[24] = molecular target: D(4) dopamine receptor (Homo sapiens) (UniProt P21917); settings: Compound concentration 10.0 uM
[25] = molecular target: Sodium-dependent serotonin transporter (Homo sapiens) (UniProt P31645); settings: Compound concentration 10.0 uM
[26] = molecular target: D(2) dopamine receptor (Homo sapiens) (UniProt P14416); settings: Compound concentration 10.0 uM
[27] = molecular target: T2, Sigma non-opioid intracellular receptor 1; experiment: GPCRScan assay: inhibition of Sigma 1; design: radioligand conc. used [nm] 4.0 – 5.0, parental cells HEKT
[28] = molecular target: Sigma intracellular receptor 2 (Homo sapiens) (UniProt Q5BJF2); settings: Compound concentration 10.0 uM
[29] = molecular target: Ubiquitin carboxyl-terminal hydrolase isozyme L1 (Homo sapiens) (UniProt P09936); experiment: UCHL1 activity based protein profiling assay (ABPP)
[30] = molecular target: Histamine H2 receptor (Homo sapiens) (UniProt P25021); settings: Compound concentration 10.0 uM
[31] = molecular target: 5-hydroxytryptamine receptor 2B (Homo sapiens) (UniProt P41595); settings: Compound concentration 10.0 uM
[32] = molecular target: 5-hydroxytryptamine receptor 2A (Homo sapiens) (UniProt P28223); settings: Compound concentration 10.0 uM
[33] = molecular target: 5-hydroxytryptamine receptor 1A (Homo sapiens) (UniProt P08908); settings: Compound concentration 10.0 uM
[34] = molecular target: Alpha-2B adrenergic receptor (Homo sapiens) (UniProt P18089); settings: Compound concentration 10.0 uM
[35] = molecular target: Beta-3 adrenergic receptor (Homo sapiens) (UniProt P13945); settings: Compound concentration 10.0 uM
[36] = molecular target: Histamine H1 receptor (Homo sapiens) (UniProt P35367); settings: Compound concentration 10.0 uM
[37] = molecular target: Mu-type opioid receptor (Homo sapiens) (UniProt P35372); settings: Compound concentration 10.0 uM
[38] = molecular target: T3, GABA-A receptor; anion channel (Rattus norvegicus); settings: Compound concentration 10.0 uM; remark: listed apart in the source
[39] = molecular target: 5-hydroxytryptamine receptor 5A (Homo sapiens) (UniProt P47898); settings: Compound concentration 10.0 uM
[40] = molecular target: 5-hydroxytryptamine receptor 1E (Homo sapiens) (UniProt P28566); settings: Compound concentration 10.0 uM
[41] = molecular target: Muscarinic acetylcholine receptor M2 (Homo sapiens) (UniProt P08172); settings: Compound concentration 10.0 uM
[42] = molecular target: Alpha-1D adrenergic receptor (Homo sapiens) (UniProt P25100); settings: Compound concentration 10.0 uM
[43] = molecular target: Beta-2 adrenergic receptor (Homo sapiens) (UniProt P07550); settings: Compound concentration 10.0 uM
[44] = molecular target: Alpha-1B adrenergic receptor (Homo sapiens) (UniProt P35368); settings: Compound concentration 10.0 uM
[45] = molecular target: Muscarinic acetylcholine receptor M5 (Homo sapiens) (UniProt P08912); settings: Compound concentration 10.0 uM
[46] = molecular target: D(1A) dopamine receptor (Homo sapiens) (UniProt P21728); settings: Compound concentration 10.0 uM
[47] = molecular target: Ubiquitin carboxyl-terminal hydrolase isozyme L1 (Homo sapiens, UniProt P09936); experiment: UCHL1 inhibition assay with Ub-Rho-morpholine as substrate
[48] = molecular target: Alpha-2A adrenergic receptor (Homo sapiens) (UniProt P08913); settings: Compound concentration 10.0 uM
[49] = molecular target: Alpha-2A adrenergic receptor (Homo sapiens, UniProt P08913); experiment: GPCRScan assay: inhibition of Alpha2A; design: radioligand conc. used [nm] 1.0 – 3.0, parental cells stable MDCK
[50] = molecular target: T1, Sodium-dependent dopamine transporter; experiment: GPCRScan assay: inhibition of DAT; design: radioligand conc. used [nm] 3.6 – 16.0, parental cells stable HEK

T2 sequence (Q99720 whole entry): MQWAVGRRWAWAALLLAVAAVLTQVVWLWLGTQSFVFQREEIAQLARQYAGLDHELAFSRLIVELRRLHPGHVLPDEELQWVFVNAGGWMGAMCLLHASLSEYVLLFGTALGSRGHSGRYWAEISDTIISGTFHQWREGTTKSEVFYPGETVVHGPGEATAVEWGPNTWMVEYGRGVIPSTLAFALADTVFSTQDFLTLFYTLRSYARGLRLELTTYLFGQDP
T1 sequence (Q01959 whole entry): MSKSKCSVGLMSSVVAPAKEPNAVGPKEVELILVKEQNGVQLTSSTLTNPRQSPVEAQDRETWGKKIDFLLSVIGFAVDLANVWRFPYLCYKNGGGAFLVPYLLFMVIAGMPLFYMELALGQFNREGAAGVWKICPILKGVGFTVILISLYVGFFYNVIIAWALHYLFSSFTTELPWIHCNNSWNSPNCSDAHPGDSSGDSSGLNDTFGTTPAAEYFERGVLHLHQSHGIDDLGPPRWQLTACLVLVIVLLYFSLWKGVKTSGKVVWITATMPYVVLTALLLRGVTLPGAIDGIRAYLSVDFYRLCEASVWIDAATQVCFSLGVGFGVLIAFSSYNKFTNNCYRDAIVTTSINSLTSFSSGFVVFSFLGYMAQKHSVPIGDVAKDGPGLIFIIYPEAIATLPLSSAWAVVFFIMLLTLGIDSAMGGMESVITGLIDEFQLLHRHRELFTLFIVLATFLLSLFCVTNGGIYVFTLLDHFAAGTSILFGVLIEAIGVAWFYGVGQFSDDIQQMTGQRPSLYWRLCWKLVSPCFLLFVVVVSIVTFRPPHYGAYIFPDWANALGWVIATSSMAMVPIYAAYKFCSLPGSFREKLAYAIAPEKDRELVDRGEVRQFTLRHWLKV
Sequence of Alpha-2B adrenergic receptor (Homo sapiens) (P18089 whole entry): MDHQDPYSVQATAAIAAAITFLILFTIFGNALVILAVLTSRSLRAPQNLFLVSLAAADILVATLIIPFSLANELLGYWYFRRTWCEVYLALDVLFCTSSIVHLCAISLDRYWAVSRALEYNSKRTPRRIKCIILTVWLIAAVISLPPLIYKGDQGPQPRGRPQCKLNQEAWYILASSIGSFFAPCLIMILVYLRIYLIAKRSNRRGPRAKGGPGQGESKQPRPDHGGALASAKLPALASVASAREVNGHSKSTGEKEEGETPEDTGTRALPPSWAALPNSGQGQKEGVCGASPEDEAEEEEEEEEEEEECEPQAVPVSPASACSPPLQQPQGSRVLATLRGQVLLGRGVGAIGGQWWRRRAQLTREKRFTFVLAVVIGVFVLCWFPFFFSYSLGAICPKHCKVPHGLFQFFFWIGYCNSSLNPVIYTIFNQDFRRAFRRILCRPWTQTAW
Sequence of 5-hydroxytryptamine receptor 6 (Homo sapiens) (P50406 whole entry): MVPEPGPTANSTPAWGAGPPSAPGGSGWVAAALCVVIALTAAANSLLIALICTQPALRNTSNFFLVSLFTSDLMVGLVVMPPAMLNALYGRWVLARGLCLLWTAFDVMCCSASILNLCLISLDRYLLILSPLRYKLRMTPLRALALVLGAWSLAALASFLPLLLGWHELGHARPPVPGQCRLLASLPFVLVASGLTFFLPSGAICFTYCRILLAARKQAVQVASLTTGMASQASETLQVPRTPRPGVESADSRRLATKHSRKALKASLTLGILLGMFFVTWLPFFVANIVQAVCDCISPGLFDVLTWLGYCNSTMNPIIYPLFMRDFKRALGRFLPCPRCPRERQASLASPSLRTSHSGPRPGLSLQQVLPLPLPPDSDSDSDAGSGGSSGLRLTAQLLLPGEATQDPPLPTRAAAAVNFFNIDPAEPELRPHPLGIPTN
Sequence of 5-hydroxytryptamine receptor 2B (Homo sapiens) (P41595 whole entry): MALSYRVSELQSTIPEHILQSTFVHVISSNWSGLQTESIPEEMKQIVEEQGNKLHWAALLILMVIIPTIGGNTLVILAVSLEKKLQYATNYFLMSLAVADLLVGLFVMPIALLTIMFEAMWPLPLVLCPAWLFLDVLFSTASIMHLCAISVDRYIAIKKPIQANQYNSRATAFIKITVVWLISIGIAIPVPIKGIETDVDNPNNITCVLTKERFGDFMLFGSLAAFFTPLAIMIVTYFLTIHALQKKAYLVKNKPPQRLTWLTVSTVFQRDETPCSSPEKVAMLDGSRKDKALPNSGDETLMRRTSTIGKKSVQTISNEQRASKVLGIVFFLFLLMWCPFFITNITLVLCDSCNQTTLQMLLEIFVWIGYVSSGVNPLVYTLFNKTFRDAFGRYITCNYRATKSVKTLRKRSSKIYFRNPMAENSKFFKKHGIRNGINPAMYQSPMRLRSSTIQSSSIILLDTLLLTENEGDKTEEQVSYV
Sequence of Muscarinic acetylcholine receptor M3 (Homo sapiens) (P20309 whole entry, looked up): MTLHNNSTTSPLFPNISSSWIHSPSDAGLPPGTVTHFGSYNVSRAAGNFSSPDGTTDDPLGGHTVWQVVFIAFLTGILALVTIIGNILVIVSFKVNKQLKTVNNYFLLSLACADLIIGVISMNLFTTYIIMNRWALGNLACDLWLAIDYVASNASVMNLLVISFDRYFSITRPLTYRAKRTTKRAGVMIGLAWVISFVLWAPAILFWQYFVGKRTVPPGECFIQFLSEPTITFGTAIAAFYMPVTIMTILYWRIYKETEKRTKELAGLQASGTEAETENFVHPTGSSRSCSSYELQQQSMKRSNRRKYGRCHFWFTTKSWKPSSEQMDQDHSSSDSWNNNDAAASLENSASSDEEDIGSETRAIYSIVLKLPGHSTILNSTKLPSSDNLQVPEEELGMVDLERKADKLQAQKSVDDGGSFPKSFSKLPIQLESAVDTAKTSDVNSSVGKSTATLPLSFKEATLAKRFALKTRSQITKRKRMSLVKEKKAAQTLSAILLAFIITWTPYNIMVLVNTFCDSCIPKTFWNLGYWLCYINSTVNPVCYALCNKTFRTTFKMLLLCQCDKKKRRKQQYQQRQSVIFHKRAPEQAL
Sequence of 5-hydroxytryptamine receptor 2C (Homo sapiens) (P28335 whole entry): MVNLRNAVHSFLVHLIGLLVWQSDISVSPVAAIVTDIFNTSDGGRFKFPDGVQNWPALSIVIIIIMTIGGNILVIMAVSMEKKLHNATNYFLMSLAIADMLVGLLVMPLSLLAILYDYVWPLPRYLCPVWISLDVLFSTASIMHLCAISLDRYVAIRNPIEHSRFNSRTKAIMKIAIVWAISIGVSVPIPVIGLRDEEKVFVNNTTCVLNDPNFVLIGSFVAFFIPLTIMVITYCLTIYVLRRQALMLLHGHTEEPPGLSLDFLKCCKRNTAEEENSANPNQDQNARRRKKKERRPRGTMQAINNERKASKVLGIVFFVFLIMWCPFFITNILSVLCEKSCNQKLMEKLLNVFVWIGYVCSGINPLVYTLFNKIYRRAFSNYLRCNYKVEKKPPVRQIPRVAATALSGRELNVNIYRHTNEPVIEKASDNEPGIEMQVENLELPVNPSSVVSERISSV
Sequence of Alpha-1A adrenergic receptor (Homo sapiens) (P35348 whole entry): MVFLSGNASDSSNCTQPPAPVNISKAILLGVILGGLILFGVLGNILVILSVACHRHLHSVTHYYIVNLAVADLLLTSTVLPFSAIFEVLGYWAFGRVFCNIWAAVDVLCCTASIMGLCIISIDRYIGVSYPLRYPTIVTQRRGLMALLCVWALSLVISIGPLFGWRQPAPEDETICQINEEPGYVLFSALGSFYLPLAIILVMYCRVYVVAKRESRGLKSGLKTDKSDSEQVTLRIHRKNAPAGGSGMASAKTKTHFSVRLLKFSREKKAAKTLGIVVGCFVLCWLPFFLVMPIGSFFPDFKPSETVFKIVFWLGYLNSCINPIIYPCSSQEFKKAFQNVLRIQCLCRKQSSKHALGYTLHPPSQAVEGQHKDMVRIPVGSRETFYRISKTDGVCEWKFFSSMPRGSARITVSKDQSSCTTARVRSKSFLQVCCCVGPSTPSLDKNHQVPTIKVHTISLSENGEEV
Sequence of Histamine H2 receptor (Homo sapiens) (P25021 whole entry): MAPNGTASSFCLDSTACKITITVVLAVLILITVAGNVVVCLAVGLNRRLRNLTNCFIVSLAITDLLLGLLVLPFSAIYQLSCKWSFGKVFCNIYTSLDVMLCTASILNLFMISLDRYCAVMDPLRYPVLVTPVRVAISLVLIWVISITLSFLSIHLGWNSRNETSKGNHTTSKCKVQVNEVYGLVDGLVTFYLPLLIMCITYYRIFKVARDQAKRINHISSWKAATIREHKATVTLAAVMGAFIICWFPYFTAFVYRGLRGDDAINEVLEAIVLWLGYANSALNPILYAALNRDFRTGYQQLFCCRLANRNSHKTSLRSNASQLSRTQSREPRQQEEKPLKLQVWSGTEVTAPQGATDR
Sequence of 5-hydroxytryptamine receptor 2A (Homo sapiens) (P28223 whole entry): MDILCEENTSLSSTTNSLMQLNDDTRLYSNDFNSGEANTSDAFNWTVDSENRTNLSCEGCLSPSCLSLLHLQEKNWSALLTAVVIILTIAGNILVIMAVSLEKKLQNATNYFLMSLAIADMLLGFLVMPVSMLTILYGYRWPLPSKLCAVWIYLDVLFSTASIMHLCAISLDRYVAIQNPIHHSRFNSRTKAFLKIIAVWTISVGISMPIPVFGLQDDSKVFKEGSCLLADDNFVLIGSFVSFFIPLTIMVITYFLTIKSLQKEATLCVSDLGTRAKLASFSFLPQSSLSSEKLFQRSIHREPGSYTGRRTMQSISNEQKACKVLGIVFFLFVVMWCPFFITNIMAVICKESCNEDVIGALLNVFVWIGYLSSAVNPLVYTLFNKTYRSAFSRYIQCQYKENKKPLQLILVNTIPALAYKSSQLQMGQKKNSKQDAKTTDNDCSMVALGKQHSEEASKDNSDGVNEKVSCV
Sequence of 5-hydroxytryptamine receptor 5A (Homo sapiens) (P47898 whole entry): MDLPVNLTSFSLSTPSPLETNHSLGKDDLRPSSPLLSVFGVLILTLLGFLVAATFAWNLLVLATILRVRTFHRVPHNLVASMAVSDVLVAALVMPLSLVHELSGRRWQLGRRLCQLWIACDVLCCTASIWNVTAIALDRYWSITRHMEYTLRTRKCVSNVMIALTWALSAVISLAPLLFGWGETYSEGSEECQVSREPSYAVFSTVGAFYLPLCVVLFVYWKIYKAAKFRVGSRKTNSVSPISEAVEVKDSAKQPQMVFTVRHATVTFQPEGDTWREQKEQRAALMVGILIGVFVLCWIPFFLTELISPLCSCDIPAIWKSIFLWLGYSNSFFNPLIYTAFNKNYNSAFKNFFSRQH

- inhibition [1]: 7.58%
- inhibition [2]: -2.33%
- inhibition [3]: 7.55%
- inhibition [4]: 4.84%
- inhibition [5]: -0.37%
- inhibition [6]: 14.7%
- IC50 [7]: 0.32 µM (active)
- inhibition [8]: -7.19%
- inhibition [9]: 2.31%
- inhibition (Rattus norvegicus): 21.9%
- inhibition [10]: 8.43%
- inhibition [11]: -5.98%
- inhibition [12]: 9.94%
- inhibition [13]: 0.19%
- inhibition [14]: 11.2%
- inhibition [15]: 69%
- inhibition [16]: -2.14%
- inhibition [17]: 2.61%
- inhibition [18]: -1.06%
- inhibition [19]: -0.16%
- inhibition [20]: 18.2%
- inhibition [21]: 5.77%
- inhibition [22]: 1.57%
- inhibition [23]: -1.04%
- inhibition [24]: 4.26%
- inhibition [25]: 2.49%
- inhibition [26]: 0.55%
- Ki ([27]; read-out: Ki): 3.43 µM
- Ki ([27]; read-out: pKi (converted)): 3.39 µM
- inhibition [28]: -1.19%
- Full inhibition [29]: 3 µM
- inhibition [30]: 0.58%
- inhibition [31]: 5.22%
- inhibition [32]: 30%
- inhibition [33]: 7.61%
- inhibition [34]: -1.02%
- inhibition [35]: -3.31%
- inhibition [36]: 7.45%
- inhibition [37]: 12.6%
- inhibition [38]: -2.35%
- inhibition [39]: 11.8%
- inhibition [40]: 2.35%
- inhibition [41]: -0.45%
- inhibition [42]: 12.2%
- inhibition [43]: -0.7%
Structure (SMILES): N#CN1CC[C@H](C(=O)Nc2nc3c(s2)CN(C(=O)CN=[N+]=[N-])CC3)C1 [8RK64]

- inhibition [44]: -7.5%
- inhibition [1]: 24.4%
- inhibition [2]: 83%
- inhibition [4]: -1.43%
- inhibition [5]: 20.9%
- inhibition [6]: 4.21%
- inhibition [45]: 2.94%
- inhibition [46]: 8.27%
- inhibition [8]: 3.17%
- inhibition [9]: 0.95%
- inhibition (Rattus norvegicus): 5.64%
- inhibition [10]: 4.07%
- inhibition [11]: -2.11%
- IC50 [47]: 12.9 µM (not active)
- inhibition [12]: 8.14%
- inhibition [13]: 13.3%
- inhibition [48]: 50.7%
- inhibition [14]: 3.73%
- inhibition [15]: 6.56%
- inhibition [17]: 3.51%
- inhibition [18]: 34.2%
- inhibition [19]: -1.05%
- inhibition [20]: 6.22%
- inhibition [22]: 6.13%
- inhibition [23]: -2.15%
- inhibition [24]: 5.53%
- Ki [49]: > 10 µM
- pKi [49]: < 5
- inhibition [25]: 7.66%
- inhibition [26]: 4.82%
- inhibition [30]: 3.43%
- inhibition [31]: 5.55%
- inhibition [32]: 3.66%
- inhibition [33]: 12.1%
- Ki [50]: > 10 µM
- pKi [50]: < 5
- inhibition [34]: 6.46%
- inhibition [36]: 0.43%
- inhibition [37]: 18.7%
- inhibition [38]: 28.7%
- inhibition [39]: 9.64%
- inhibition [40]: 6.5%
- inhibition [42]: 0.34%
- inhibition [43]: -8.12%
Structure (SMILES): N#CN1CC[C@@H](C(=O)Nc2nc3c(s2)CN(C(=O)CN=[N+]=[N-])CC3)C1 [JYQ88]
